# In article PMC10082216 (Nature Communications, 2023):
# pIC50: −log10 of the molar value. Read-outs that look alike come from different tables or passages of the source.
# Assays:
# [1] = system: F32-TEM P. falciparum strain; test: Resistance selection by TD-6450 drug pulses, dose-response on F32-TEM; format: cell-based, Plasmodium falciparum; details: for Parental strain 1 (viability) / Parental strain 2 (viability) / Parental strain 3 (viability): No drug pulses; for pIC50: Plasmodium falciparum
# Procedure: To assess the ability of P. falciparum to develop resistance against TD-6450, we exposed F32-TEM line parasites, a reference artemisinin-sensitive P. falciparum strain[45], to the drug at 3 µM concentration for three days. We confirmed the absence of parasites on Giemsa-stained smears following exposure, then checked daily for parasite re-appearance in a drug-free culture flask.
# [2] = system: healthy subjects; test: TD-6450 phase I clinical study (SAD/MAD): safety and tolerability; format: in vivo, human
# Text: This was a phase I, double-blinded, randomized, placebo-controlled, Single Ascending Dose (SAD) and Multiple Ascending Dose (MAD) study to evaluate the safety and tolerability of TD-6450 in healthy subjects (primary objective) and the pharmacokinetics (secondary objective). The study is available in the website clinicaltrial.gov (identifier NCT02022306), it started on February the 4th 2014 (first subject enrolled) and was concluded on August the 18th 2014 (last subject concluded), in the Healthcare Discoveries (a subsidiary of ICON Development Solutions) in San Antonio, Texas, USA. Healthy, non-smoking subjects with no history of significant medical conditions, with a BMI included between 18 and 30 kg/m^2, who weight at least 50 kg, between 18 and 60 years old, were selected for this study. Subjects were able and willing to give an informed consent. No bias was reported in the selection process. The protocol and all amendments for this study and all accompanying material that was provided to subjects (including advertisements, subject’s information sheets, and descriptions of the study used to obtain informed consent) were submitted by the investigator to the centralized Institutional Review Board (IRB), namely the IntegReview, established in 1999 at Austin (Texas, U.S.A.) and acquired by Advarra in 2020. Documented approval was obtained before the study was started, on March the 28th 2014. This study was conducted in accordance with the protocol, the principles of the International Conference on Harmonization of Technical Requirements for Registration of Pharmaceuticals for Human Use (ICH) Guideline for Good Clinical Practice (GCP), the United States Code of Federal Regulations, the principles of the World Medical Association Declaration of Helsinki, Ethical Principles for Medical Research Involving Human Subjects, and all applicable regulatory requirement.
# Primary and secondary outcomes were pre-defined as follows: Safety and tolerability as a primary outcome, pharmacokinetics as a secondary outcome. Safety and tolerability were evaluated using standard measures, including adverse event (AE) monitoring, clinical laboratory tests (hematology, serum chemistry, coagulation, and urinalysis), vital signs, physical examinations, and 12-lead electrocardiograms (ECGs). […] Pharmacokinetics were evaluated by the collection of blood samples from each subject at following time points: predose (within 30 min before dosing, only in day 1 60 min before dosing), and 0.5,1,2,3,4,6,8 and 12 hours after dosing.
# This study was conducted in two parts, Part A (SAD) and Part B (MAD). For the Part A, the age of enrolled subjects ranged from 20 to 60 years, with a mean age range of 32.1 to 46.2 years. Most subjects were male (73 total subjects) and most were white (55 subjects) or black (22 subjects). For Part B of the study, ages ranged from 23 to 60 years with a similar mean age across treatment groups. Most subjects were male (25 total subjects) and all were either white (18 subjects) or black (12 subjects). For each part of the study, the mean body mass index (BMI) and creatinine clearance were similar across treatment groups. […] Part A: Healthy subjects were sequentially enrolled and randomly assigned to each dose cohort (up to 10 dose-ascending cohorts were planned, including a fed arm in the food effect cohort) to receive either a single dose of TD-6450 or placebo. For each dose cohort, 8 subjects were randomized in a 3:1 ratio (6 subjects received TD-6450 and 2 subjects received placebo). The starting dose of TD-6450 was 0.5 mg with a planned maximum dose of 1000 mg. Upon review of the 500-mg cohort PK data, the decision was made to not escalate to the 1000-mg cohort because of exposure saturation at ≥ 500 mg. The following doses were administered: 0.5 mg, 1.5 mg, 5 mg, 15 mg, 30 mg, 60 mg, 120 mg, 240 mg, and 500 mg. […]
smiles,measurement,setting,value
CNC(=O)N1C[C@@H](C)N(c2ccc(C(=O)Nc3ccc(-c4ccc(-c5c[nH]c([C@@H]6CCCN6C(=O)[C@@H](NC(=O)OC)C(C)C)n5)cc4)c(OC(F)(F)F)c3)cn2)C[C@@H]1C [TD-6450],Parental strain 1 (viability),[1]; 5 µM,1.88
same,Parental strain 2 (viability),[1]; 5 µM,1.225
same,Parental strain 3 (viability),[1]; 5 µM,1.766
same,Parental strain 1 (viability),[1]; 10 µM,1.472
same,Parental strain 2 (viability),[1]; 10 µM,0.6944
same,Parental strain 3 (viability),[1]; 10 µM,1.083
same,Parental strain 1 (viability),[1]; 20 µM,1.826
same,Parental strain 2 (viability),[1]; 20 µM,0.509
same,Parental strain 3 (viability),[1]; 20 µM,0.9281
same,pIC50,"[1]; F32, read-out: IC50, F32-TEM 5 pulses",6.15
same,pIC50,"[1]; F32, read-out: IC50, F32-TEM 10 pulses",6.52
same,pIC50,"[1]; F32, read-out: IC50, F32-TEM P.S.",6.70
same,fold shift in IC50,"[1]; after five drug-killing pulses (3 µM, three days)",3.5 fold
same,fold shift in IC50,"[1]; after ten drug-killing pulses (3 µM, three days)",1.5 fold
same,At least one AE N (%),[2]; MAD 60 mg once daily 14 days,4 (50.0) N (%)
same,At least one SAE N (%),[2]; MAD 60 mg once daily 14 days,0 (0.0) N (%)
same,Death N (%),[2]; MAD 60 mg once daily 14 days,0 (0.0) N (%)
same,Discontinuation due to an AE N (%),[2]; MAD 60 mg once daily 14 days,0 (0.0) N (%)
same,At least one AE N (%),[2]; MAD 120 mg once daily 14 days,3 (37.5) N (%)
same,At least one SAE N (%),[2]; MAD 120 mg once daily 14 days,0 (0.0) N (%)
same,Death N (%),[2]; MAD 120 mg once daily 14 days,0 (0.0) N (%)
same,Discontinuation due to an AE N (%),[2]; MAD 120 mg once daily 14 days,0 (0.0) N (%)
same,At least one AE N (%),[2]; MAD 240 mg once daily 14 days,3 (37.5) N (%)
same,At least one SAE N (%),[2]; MAD 240 mg once daily 14 days,0 (0.0) N (%)
same,Death N (%),[2]; MAD 240 mg once daily 14 days,0 (0.0) N (%)
same,Discontinuation due to an AE N (%),[2]; MAD 240 mg once daily 14 days,0 (0.0) N (%)
same,At least one AE N (%),[2]; SAD 0.5 mg,3 (50.0) N (%)
same,At least one SAE N (%),[2]; SAD 0.5 mg,0 (0.0) N (%)
same,Death N (%),[2]; SAD 0.5 mg,0 (0.0) N (%)
same,Discontinuation due to an AE N (%),[2]; SAD 0.5 mg,0 (0.0) N (%)
same,At least one AE N (%),[2]; SAD 1.5 mg,3 (50.0) N (%)
same,At least one SAE N (%),[2]; SAD 1.5 mg,0 (0.0) N (%)
same,Death N (%),[2]; SAD 1.5 mg,0 (0.0) N (%)
same,Discontinuation due to an AE N (%),[2]; SAD 1.5 mg,0 (0.0) N (%)
same,At least one AE N (%),[2]; SAD 5 mg,0 (0.0) N (%)
same,At least one SAE N (%),[2]; SAD 5 mg,0 (0.0) N (%)
same,Death N (%),[2]; SAD 5 mg,0 (0.0) N (%)
same,Discontinuation due to an AE N (%),[2]; SAD 5 mg,0 (0.0) N (%)
same,At least one AE N (%),[2]; SAD 15 mg,1 (16.7) N (%)
same,At least one SAE N (%),[2]; SAD 15 mg,0 (0.0) N (%)
same,Death N (%),[2]; SAD 15 mg,0 (0.0) N (%)
same,Discontinuation due to an AE N (%),[2]; SAD 15 mg,0 (0.0) N (%)
same,At least one AE N (%),[2]; SAD 30 mg,1 (16.7) N (%)
same,At least one SAE N (%),[2]; SAD 30 mg,0 (0.0) N (%)
same,Death N (%),[2]; SAD 30 mg,0 (0.0) N (%)
same,Discontinuation due to an AE N (%),[2]; SAD 30 mg,0 (0.0) N (%)
same,At least one AE N (%),[2]; SAD 60 mg,0 (0.0) N (%)
same,At least one SAE N (%),[2]; SAD 60 mg,0 (0.0) N (%)
same,Death N (%),[2]; SAD 60 mg,0 (0.0) N (%)
same,Discontinuation due to an AE N (%),[2]; SAD 60 mg,0 (0.0) N (%)
same,At least one AE N (%),[2]; SAD 120 mg,1 (16.7) N (%)
same,At least one SAE N (%),[2]; SAD 120 mg,0 (0.0) N (%)
same,Death N (%),[2]; SAD 120 mg,0 (0.0) N (%)
same,Discontinuation due to an AE N (%),[2]; SAD 120 mg,0 (0.0) N (%)
same,At least one AE N (%),[2]; SAD 240 mg,0 (0.0) N (%)
same,At least one SAE N (%),[2]; SAD 240 mg,0 (0.0) N (%)
same,Death N (%),[2]; SAD 240 mg,0 (0.0) N (%)
same,Discontinuation due to an AE N (%),[2]; SAD 240 mg,0 (0.0) N (%)
same,At least one AE N (%),[2]; SAD 500 mg,2 (33.3) N (%)
same,At least one SAE N (%),[2]; SAD 500 mg,0 (0.0) N (%)
same,Death N (%),[2]; SAD 500 mg,0 (0.0) N (%)
same,Discontinuation due to an AE N (%),[2]; SAD 500 mg,0 (0.0) N (%)
same,severe adverse events in Phase 1 study,[2]; single or multiple doses,no severe adverse events
